Data from article PMC3446968 (PLoS ONE, 2012).
Like-named read-outs stand apart in the source and are kept apart here. No end group written: not given here.

Experiments:
Sir2Af2-Met70Arg = Sir2Af2-Met70Arg (Archaeoglobus fulgidus, UniProt O30124, M70R); assay: MS-based peptide deacylation assay, Sir2Af2-Met70Arg variant; details: for IC50: IC50 nicotinamide inhibition
Description: (§1) Samples were diluted with 0.1% formic acid and filtered using 10 kDa cutoff concentrators. Samples were analyzed on an LC-ESI-MS system consisting of a Prominence HPLC (Shimadzu, Duisburg, Germany) with Sil20AC autosampler connected to an LTQ XL mass spectrometer (Thermo Fisher, Bremen, Germany). […] Extracted ion chromatograms (XICs) with mass windows of ±2 m/z were generated for the acylated and deacylated peptide, and peak areas were determined using automatic peak area detection of the Xcalibur Qual Browser module and further analyzed with Excel (Microsoft, Seattle, USA) or GraFit (Erithacus Software, West Sussex, UK).

Sir2Af2 = target: T1, Sir2Af2 (Archaeoglobus fulgidus, UniProt O30124); assay: MS-based peptide deacylation assay, Sir2Af2 wt; type: biochemical; details: for IC50: IC50 nicotinamide inhibition; for normalized desuccinylation [%]: succinylated Prx1-Lys197
T1 construct: host or cells: E. coli BL21DE3 Rosetta2
T1 sequence (O30124 1-253): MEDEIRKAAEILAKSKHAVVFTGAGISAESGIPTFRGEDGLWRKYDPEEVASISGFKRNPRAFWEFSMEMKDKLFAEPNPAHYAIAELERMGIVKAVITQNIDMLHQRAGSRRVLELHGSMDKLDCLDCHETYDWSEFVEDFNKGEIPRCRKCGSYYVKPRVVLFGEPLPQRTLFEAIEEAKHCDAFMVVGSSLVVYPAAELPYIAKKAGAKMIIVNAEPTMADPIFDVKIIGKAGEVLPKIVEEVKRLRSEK
Description: as §1

Sirt5Zf = target: T2, Sirt5Zf (Danio rerio, UniProt Q6DHI5); assay: MS-based peptide deacylation assay, zebrafish Sirt5; type: biochemical; details: deacetylation, CPS1 peptide (Fig. S3)
T2 construct: zebrafish Sirt5 (residues 30- 298); 6x His tag with TEV protease cleavage site (N); made in house; host or cells: E. coli BL21DE3 Rosetta 2
T2 sequence (Q6DHI5 30-298): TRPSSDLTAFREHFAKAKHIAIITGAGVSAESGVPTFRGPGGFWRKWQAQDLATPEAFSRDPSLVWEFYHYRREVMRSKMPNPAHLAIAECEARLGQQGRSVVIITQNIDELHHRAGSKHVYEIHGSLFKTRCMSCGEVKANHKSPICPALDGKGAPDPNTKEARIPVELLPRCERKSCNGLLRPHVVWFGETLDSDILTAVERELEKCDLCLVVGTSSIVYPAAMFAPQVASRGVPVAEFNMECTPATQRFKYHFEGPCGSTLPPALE
Description: as §1

Sirt3 = details: read-out: KM apparent affinity for cosubstrate; cited from earlier work
human Sirt3 = target: T3, human Sirt3 (Homo sapiens, UniProt Q9NTG7); assay: Binding analysis by microscale thermophoresis, Sirt3
T3 construct: human Sirt3 (residues 114-380); 6x His tag with TEV protease cleavage site (N); made in house; host or cells: E. coli BL21DE3 Rosetta 2
T3 sequence (Q9NTG7 114-380): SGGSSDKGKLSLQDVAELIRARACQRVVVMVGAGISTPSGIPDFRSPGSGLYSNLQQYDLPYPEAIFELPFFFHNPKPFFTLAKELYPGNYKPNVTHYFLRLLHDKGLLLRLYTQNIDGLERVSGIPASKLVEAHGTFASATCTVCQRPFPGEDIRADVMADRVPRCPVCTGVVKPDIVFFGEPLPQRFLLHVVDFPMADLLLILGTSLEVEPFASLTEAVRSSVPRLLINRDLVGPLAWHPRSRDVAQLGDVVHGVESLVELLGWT
Description: Non-bound dye was removed using a Nap25 column (GE Healthcare). Dissociation constants were determined from microscale thermophoresis using a Monolith NT.115 (NanoTemper Technologies, Munich, Germany). […] Dissociation constants were determined by non-linear fitting in GraFit.

human Sirt5 [1] = target: T4, human Sirt5 (Homo sapiens, UniProt Q9NXA8); assay: Binding analysis by microscale thermophoresis, Sirt5
T4 construct: (residues 34- 302); 6x His tag with TEV protease cleavage site (N); made in house; host or cells: E. coli BL21DE3 Rosetta 2
T4 sequence (Q9NXA8 34-302): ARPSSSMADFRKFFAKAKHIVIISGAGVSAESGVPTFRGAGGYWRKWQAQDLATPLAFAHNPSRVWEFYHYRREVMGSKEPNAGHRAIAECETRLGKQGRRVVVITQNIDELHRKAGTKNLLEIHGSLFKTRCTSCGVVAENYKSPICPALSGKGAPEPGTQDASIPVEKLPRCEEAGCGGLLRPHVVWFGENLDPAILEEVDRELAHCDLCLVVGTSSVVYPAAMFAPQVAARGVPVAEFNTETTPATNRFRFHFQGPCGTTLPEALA
Description: For labeling, 100 µM Sirtuin were incubated with 200 µM fluorescein isothiocyanate (Thermo Fisher) in 20 mM HEPES pH 7.5, 150 mM NaCl over night at 4°C in the dark. Non-bound dye was removed using a Nap25 column (GE Healthcare). Dissociation constants were determined from microscale thermophoresis using a Monolith NT.115 (NanoTemper Technologies, Munich, Germany). […] Dissociation constants were determined by non-linear fitting in GraFit.

human Sirt5 [2] = target: T5, human Sirt5 (human, UniProt Q9NXA8 37-310, labelled with fluorescein isothiocyanate (sites not given)); assay: MST; ligand (peptide) titrated to 100 nM fluorescein-labelled Sirtuin; mixtures preincubated 30 min at room temperature; Monolith NT.115; non-linear fitting in GraFit; details: both partners purified
T5 construct: Sirt5, human; a 'gene fragment' cloned into pET151/D-Topo
T5 sequence (looked up): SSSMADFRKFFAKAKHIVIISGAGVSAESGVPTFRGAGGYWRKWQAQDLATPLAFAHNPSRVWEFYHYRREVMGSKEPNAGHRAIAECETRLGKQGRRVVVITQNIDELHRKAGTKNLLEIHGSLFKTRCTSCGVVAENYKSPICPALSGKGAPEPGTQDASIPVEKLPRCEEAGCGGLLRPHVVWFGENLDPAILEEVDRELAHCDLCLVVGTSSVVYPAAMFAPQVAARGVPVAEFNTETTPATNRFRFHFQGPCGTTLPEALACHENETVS

[3] = read-out: normalized deacetylation [%]
[4] = 25 µM substrate peptide, read-out: Kd for NAD^+ under peptide saturation
[5] = in presence of 0.5 mM nicotinamide, read-out: Kd(NAD^+)
[6] = no nicotinamide, no peptide, read-out: Kd(NAD^+)

Sequence of Sir2Af2-Met70Arg (O30124 whole entry M70R): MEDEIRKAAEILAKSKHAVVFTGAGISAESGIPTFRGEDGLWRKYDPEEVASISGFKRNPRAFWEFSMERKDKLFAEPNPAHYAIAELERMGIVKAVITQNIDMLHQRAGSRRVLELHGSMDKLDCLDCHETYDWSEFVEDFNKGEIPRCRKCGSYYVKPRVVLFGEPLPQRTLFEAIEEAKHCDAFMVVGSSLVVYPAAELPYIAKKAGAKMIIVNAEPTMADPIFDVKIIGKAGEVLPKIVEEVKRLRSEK

Question: Which IC50 (Sir2Af2-Met70Arg; deacetylase activity, acetylated Prx1-Lys197) does the source give for NC(=O)c1cccnc1 [nicotinamide] here?
Answer: > 10000 µM

Question: What about the IC50 (Sir2Af2-Met70Arg; desuccinylase activity, succinylated Prx1-Lys197) of the same molecule?
Answer: 2800 ± 900 µM

Question: And the remaining activity at 1 µM (Sir2Af2-Met70Arg; [3])?
Answer: 100%

Question: What about the remaining activity at 10 µM (Sir2Af2-Met70Arg; [3]) of the same molecule?
Answer: 98.1%

Question: What about the remaining activity at 100 µM (Sir2Af2-Met70Arg; [3]) of the same molecule?
Answer: 96.1%

Question: What about the remaining activity at 500 µM (Sir2Af2-Met70Arg; [3]) of the same molecule?
Answer: 69.7%

Question: And the remaining activity at 1000 µM (Sir2Af2-Met70Arg; [3])?
Answer: 86.4%

Question: And the remaining activity at 5000 µM (Sir2Af2-Met70Arg; [3])?
Answer: 71.4%

Question: And the remaining activity at 10000 µM (Sir2Af2-Met70Arg; [3])?
Answer: 52.6%

Question: And the IC50 (Sir2Af2; acetyl-CPS1 substrate)?
Answer: 5800 ± 1600 µM

Question: What about the IC50 (Sir2Af2; acetyl-Prx1 substrate) of the same molecule?
Answer: 1300 ± 300 µM

Question: And the IC50 (Sir2Af2; deacetylation, p53 peptide (Fig. S3))?
Answer: 2100 ± 150 µM

Question: What about the IC50 (Sir2Af2; succinyl-CPS1 substrate) of the same molecule?
Answer: 6600 ± 500 µM

Question: What about the IC50 (Sir2Af2; succinyl-Prx1 substrate) of the same molecule?
Answer: > 10000 µM

Question: What about the remaining activity at 1 µM (Sir2Af2; NAM 1 µM, acetylated Prx1-Lys197, wt, read-out: normalized deacetylation [%]) of the same molecule?
Answer: 88.7%

Question: What about the “normalized desuccinylation [%]” value (Sir2Af2; NAM 1 µM, wt) of the same molecule?
Answer: 100.0%

Question: And the remaining activity at 10 µM (Sir2Af2; NAM 10 µM, acetylated Prx1-Lys197, wt, read-out: normalized deacetylation [%])?
Answer: 101%

Question: What about the “normalized desuccinylation [%]” value (Sir2Af2; NAM 10 µM, wt) of the same molecule?
Answer: 96.1%

Question: And the remaining activity at 100 µM (Sir2Af2; NAM 100 µM, acetylated Prx1-Lys197, wt, read-out: normalized deacetylation [%])?
Answer: 93%

Question: What about the “normalized desuccinylation [%]” value (Sir2Af2; NAM 100 µM, wt) of the same molecule?
Answer: 95.7%

Question: And the remaining activity at 500 µM (Sir2Af2; NAM 500 µM, acetylated Prx1-Lys197, wt, read-out: normalized deacetylation [%])?
Answer: 65.4%

Question: What about the remaining activity at 1000 µM (Sir2Af2; NAM 1000 µM, acetylated Prx1-Lys197, wt, read-out: normalized deacetylation [%]) of the same molecule?
Answer: 49.8%

Question: And the “normalized desuccinylation [%]” value (Sir2Af2; NAM 1000 µM, wt)?
Answer: 88.3%

Question: What about the remaining activity at 5000 µM (Sir2Af2; NAM 5000 µM, acetylated Prx1-Lys197, wt, read-out: normalized deacetylation [%]) of the same molecule?
Answer: 30.4%

Question: And the “normalized desuccinylation [%]” value (Sir2Af2; NAM 5000 µM, wt)?
Answer: 78.1%

Question: What about the “normalized desuccinylation [%]” value (Sir2Af2; NAM 10000 µM, wt) of the same molecule?
Answer: 69.1%

Question: And the IC50 (Sirt5Zf)?
Answer: 6900 ± 500 µM

Question: With NC(=O)c1ccc[n+]([C@@H]2O[C@H](COP(=O)([O-])OP(=O)(O)OC[C@H]3O[C@@H](n4cnc5c(N)ncnc54)[C@H](O)[C@@H]3O)[C@@H](O)[C@H]2O)c1 [NAD^+] as the molecule, how does the Km (Sirt3) read?
Answer: 100 to 600 µM

Question: And the Kd (human Sirt3; [4])?
Answer: 260 ± 150 µM

Question: What about the Kd (human Sirt3; [5]) of the same molecule?
Answer: 830 ± 240 µM

Question: And the Kd (human Sirt3; [6])?
Answer: 710 ± 230 µM

Question: What about the Kd (human Sirt5 [1]; [4]) of the same molecule?
Answer: 200 ± 70 µM

Question: And the Kd (human Sirt5 [1]; [5])?
Answer: 920 ± 230 µM

Question: And the Kd (human Sirt5 [1]; [6])?
Answer: 980 ± 280 µM

B1: CPS1-Lys527 peptide (FKRGVL(acK)EYGVKV) (peptide)
peptide: FKRGVLK(Ac)EYGVKV
notes: carbamoyl phosphate synthetase 1 (CPS1), stretch around the acetylation site Lys527; also called CPS1 peptide; source: synthetic peptide, bought: GL Biochem (Shanghai)
Question: Which Kd (human Sirt5 [2]) does the source give for B1 here?
Answer: 2.3 ± 1.5 µM

B2: ACS2-Lys642 peptide (TRSG(acK)VMR) (peptide)
peptide: TRSGK(Ac)VMR
notes: acetyl-CoA synthetase 2 (ACS2), stretch around the acetylation site Lys642; also called ACS2 peptide; source: synthetic peptide, bought: GL Biochem (Shanghai)
Question: Which Kd (human Sirt5 [2]) does the source give for B2 here?
Answer: 2.1 ± 0.7 µM
